From US4973679A, “Process for oligonucleo tide synthesis using phosphormidite intermediates” (University Patents, Inc., priority 1986, dated 1990)

Assay: Lewis acid (ZnBr2) hydrolysis rates of triarylmethyl groups attached to the 5'-hydroxyl of deoxynucleosides
Type: physicochemical
Conditions: 0.08 M ZnBr2 in nitromethane; tlc, HCl vapors
Method: These compounds are listed in Tables IV and V. The 5'-triarylmethyldeoxynucleosides were treated with protic and Lewis acids using carefully controlled conditions. […] The rates are more variable -with protic acids.
The Lewis Acid Hydrolysis Rates of Triarylmethyl Groups
^1 Reaction conditions were 0.08 M ZnBr2 in nitromethane.
Aliquots were removed from the reaction solution, quenched with ammonium
acetate and analyzed visually after tlc and exposure to HCl vapors. Time
For `COc1ccc(C(OC[C@H]2O[C@@H](n3ccc(NC(=O)c4ccccc4)nc3=O)C[C@@H]2O)(c2ccccc2)c2ccc(OC)cc2)cc1` [R1 = R2 = c; R3 = a; C], the “t1/2 in ZnBr2” value was 45 s. With `COc1ccc(C(OC[C@H]2O[C@@H](n3cc(C)c(=O)[nH]c3=O)C[C@@H]2O)(c2ccccc2)c2cccc3ccccc23)cc1` (stereo partly shown) [R1 = n; R2 = c; R3 = a; T] the “t1/2 in ZnBr2” value was 60 s. In the case of `COc1ccccc1C(OC[C@H]1O[C@@H](n2cnc3c(=O)[nH]c(NC(=O)C(C)C)nc32)C[C@@H]1O)(c1ccccc1)c1ccccc1OC` [R1 = R2 = b; R3 = a; G], the “t1/2 in ZnBr2” value was 20 s. With `COc1ccccc1C(OC[C@H]1O[C@@H](n2cc(C)c(=O)[nH]c2=O)C[C@@H]1O)(c1ccccc1OC)c1cccc2ccccc12` [R1 = R2 = b; R3 = n; T] the “t1/2 in ZnBr2” value was 30 s. With `Cc1cn([C@H]2C[C@H](O)[C@@H](COC(c3ccccc3)(c3ccc(F)cc3)c3cccc4ccccc34)O2)c(=O)[nH]c1=O` (stereo partly shown) [R1 = n; R2 = e; R3 = a; T] the “t1/2 in ZnBr2” value was 60 s. With `Cc1ccc(C(OC[C@H]2O[C@@H](n3cnc4c(NC(=O)c5ccccc5)ncnc43)C[C@@H]2O)(c2ccccc2)c2ccccc2)cc1` [R1 = h; R2 = R3 = a; A] the “t1/2 in ZnBr2” value was 45 s. For `COc1ccc(C(OC[C@H]2O[C@@H](n3cc(C)c(=O)[nH]c3=O)C[C@@H]2O)(c2ccccc2)c2ccc(OC)cc2)cc1` [R1 = R2 = c; R3 = a; T], the “t1/2 in ZnBr2” value was 60 s. In the case of `COc1ccc(C(OC[C@H]2O[C@@H](n3cnc4c(=O)[nH]c(NC(=O)C(C)C)nc43)C[C@@H]2O)(c2ccccc2)c2ccc(OC)cc2)cc1` [R1 = R2 = c; R3 = a; G], the “t1/2 in ZnBr2” value was 20 s. For `COc1ccc(C(OC[C@H]2O[C@@H](n3cnc4c(NC(=O)c5ccccc5)ncnc43)C[C@@H]2O)(c2ccccc2)c2ccc(OC)cc2)cc1` [R1 = R2 = c; R3 = a; A], the “t1/2 in ZnBr2” value was 20 s. With `COc1ccccc1C(OC[C@H]1O[C@@H](n2ccc(NC(=O)c3ccccc3)nc2=O)C[C@@H]1O)(c1ccccc1OC)c1cccc2ccccc12` [R1 = R2 = b; R3 = n; C] the “t1/2 in ZnBr2” value was 30 s.
